Assay results reported in PubChem BioAssay (NCI).
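Assay format: 96-well plates, 48-hour exposure. Here, GI50 denotes the concentration required for 50% inhibition of growth. TGI is the concentration that stops growth completely.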

What was measured:
Assay in all cases: growth of human tumour cells (NCI), 48 h
[1] = test system: LOX IMVI melanoma
[2] = test system: HCC-2998 colon
[3] = test system: RPMI-8226 leukemia
[4] = test system: SF-539 CNS
[5] = test system: A498 renal
[6] = test system: DU-145 prostate
[7] = test system: SK-MEL-5 melanoma
[8] = test system: CCRF-CEM leukemia
[9] = test system: NCI/ADR-RES ovarian
[10] = test system: KM12 colon

Row | SMILES | TGI [1] | TGI [2] | TGI [3] | TGI [4] | TGI [5] | TGI [6] | TGI [7] | TGI [8] | TGI [9] | TGI [10] | GI50 [1] | GI50 [10] | GI50 [2] | GI50 [3] | GI50 [4] | GI50 [5] | GI50 [6] | GI50 [7] | GI50 [8] | GI50 [9]
1 | CNc1ccc(Cl)cc1S(=O)(=O)c1ccccc1[N+](=O)[O-] | > 100 µM | > 100 µM | > 100 µM | > 100 µM | > 100 µM | > 100 µM | > 100 µM | > 100 µM | > 100 µM | – | – | – | – | – | – | – | – | – | – | –
2 | c1ccc([P+](c2ccccc2)(c2ccccc2)c2ccc([P+](c3ccccc3)(c3ccccc3)c3ccccc3)cc2)cc1 | > 100 µM | – | > 100 µM | 81.5 µM | > 100 µM | > 100 µM | > 100 µM | > 100 µM | > 100 µM | > 100 µM | – | – | – | – | – | – | – | – | – | –
3 | Cc1cn([C@H]2[C@@H](CO)C[C@H]2O)c(=O)[nH]c1=O | > 100 µM | > 100 µM | > 100 µM | > 100 µM | > 100 µM | > 100 µM | > 100 µM | > 100 µM | > 100 µM | > 100 µM | – | – | – | – | – | – | – | – | – | –
4 | O=S(=O)(O)C1CCC(O)C2[N-]CCCC21.O=S(=O)(O)C1CCC(O)C2[N-]CCCC21.[Zn+2] (configuration not stated) | > 100 µM | > 100 µM | > 100 µM | > 100 µM | > 100 µM | > 100 µM | > 100 µM | – | > 100 µM | > 100 µM | – | – | – | – | – | – | – | – | – | –
5 | COC1=CC(=O)C2=C(C1=O)[C@H]1CC[C@]3(C)[C@@H](OC(C)=O)CC[C@H]3[C@@H]1CC2 | 36.7 µM | – | > 100 µM | > 100 µM | > 100 µM | > 100 µM | 48.8 µM | > 100 µM | > 100 µM | > 100 µM | – | – | – | – | – | – | – | – | – | –
6 | CC(=O)O[C@H]1C(=O)N(c2cc3c4ccccc4ccc3c3ccccc23)[C@@H]1c1ccccc1 | 33.1 µM | 26.8 µM | 6.77 µM | 13.2 µM | 89.6 µM | 43.9 µM | 67.1 µM | > 100 µM | 29.5 µM | 27.1 µM | – | – | – | – | – | – | – | – | – | –
7 | CC(C)(C)OC(=O)N1CCc2c(n(C/C=C/c3ccccc3)[nH]c2=O)C1 | > 100 µM | > 100 µM | > 100 µM | > 100 µM | > 100 µM | > 100 µM | > 100 µM | > 100 µM | > 100 µM | > 100 µM | – | – | – | – | – | – | – | – | – | –
8 | CC/C(Cl)=N\OC(=O)Nc1ccc(F)cc1F | 6.57 µM | 36.7 µM | 3.57 µM | 23.5 µM | 74.8 µM | 32.2 µM | 20.6 µM | 5.11 µM | 44.5 µM | 41.3 µM | – | – | – | – | – | – | – | – | – | –
9 | O=C1CSc2nnc(CCCCCCCCc3nnc4n3NC(=O)CS4)n2N1 | – | > 100 µM | > 100 µM | > 100 µM | > 100 µM | > 100 µM | – | 51.1 µM | > 100 µM | > 100 µM | – | – | – | – | – | – | – | – | – | –
10 | COC(=O)c1ccc(/C=C2\CCc3ccccc3C2=O)cc1 | > 100 µM | > 100 µM | > 100 µM | > 100 µM | > 100 µM | > 100 µM | > 100 µM | > 100 µM | > 100 µM | > 100 µM | – | – | – | – | – | – | – | – | – | –
11 | C=CCOC(=O)CCCCCCCCCCCCCCCOC(=O)C1=C(CCC[C@@H](C)O[Si](C)(C)C(C)(C)C)NC(=O)N2[C@H](CC3(CC/C=C\[C@H](CC)O[Si](C(C)C)(C(C)C)C(C)C)OCCO3)CC[C@H]12 | – | > 100 µM | > 100 µM | > 100 µM | > 100 µM | > 100 µM | > 100 µM | > 100 µM | > 100 µM | > 100 µM | – | – | – | – | – | – | – | – | – | –
12 | CCN(CC)CCN(C)CCc1ccc(Br)cc1 | > 100 µM | > 100 µM | > 100 µM | > 100 µM | 60.4 µM | > 100 µM | 33.6 µM | > 100 µM | > 100 µM | > 100 µM | – | – | – | – | – | – | – | – | – | –
13 | CC(C)CCCC(C)[C@H]1CC[C@H]2N=C(Nc3ccccc3)CCC[C@]12C (some centres not stated) | 4.07 µM | – | 4.8 µM | 3.28 µM | 10.8 µM | > 100 µM | 3 µM | 25.3 µM | 3.32 µM | > 100 µM | – | – | – | – | – | – | – | – | – | –
14 | CCOC(=O)/C(C#N)=C/N(CC)/N=C/c1ccccc1 | – | > 100 µM | > 100 µM | > 100 µM | > 100 µM | > 100 µM | > 100 µM | > 100 µM | > 100 µM | > 100 µM | – | – | – | – | – | – | – | – | – | –
15 | Oc1[nH]c2ccccc2c1/C=c1/cc2c(c(-c3ccc(C(F)(F)F)cc3)n1)=Nc1ccccc1-2 | 22.5 µM | 24.4 µM | 13.7 µM | 44.6 µM | 38.6 µM | 34.8 µM | 19.3 µM | 16.4 µM | 18.8 µM | 12.2 µM | 8.87 µM | 2.16 µM | 9.32 µM | 2.93 µM | 16.3 µM | 5.2 µM | 8.93 µM | 5.28 µM | 3.06 µM | 1.9 µM
16 | CC1=C2C(=O)c3ccccc3C(=O)[C@H]2C[C@@H](N2CCCCCC2=O)O1 | 44.5 µM | 31.4 µM | 35.4 µM | 33.7 µM | > 100 µM | 32.3 µM | 29.6 µM | 20.3 µM | 49.8 µM | 30.7 µM | – | – | – | – | – | – | – | – | – | –

Row | SMILES | TGI [1] | TGI [2] | TGI [3] | TGI [4] | TGI [5] | TGI [6] | TGI [7] | TGI [8] | TGI [9] | TGI [10] | GI50 [1] | GI50 [10] | GI50 [2] | GI50 [3] | GI50 [4] | GI50 [5] | GI50 [6] | GI50 [7] | GI50 [8] | GI50 [9]
17 | Cn1c(=O)sc2cc(C(=S)N3CCOCC3)ccc21 | > 100 µM | > 100 µM | > 100 µM | > 100 µM | > 100 µM | > 100 µM | > 100 µM | > 100 µM | > 100 µM | > 100 µM | – | – | – | – | – | – | – | – | – | –
18 | CC(C)=CCC[C@@H](C)c1c2[nH]c3ccccc3sc-2c(C)c(=O)c1=O | > 29 µM | > 36.8 µM | 25 µM | 16.3 µM | 35.5 µM | > 75 µM | 19.7 µM | > 42.4 µM | 12.1 µM | > 35.2 µM | – | – | – | – | – | – | – | – | – | –
19 | CC(=O)c1ccc(NC(=O)CSc2nc(C)nc3c2sc(=S)n3-c2ccccc2)cc1 | > 3.16 µM | > 3.16 µM | > 3.16 µM | > 3.16 µM | > 3.16 µM | > 3.16 µM | > 3.16 µM | > 3.16 µM | > 3.16 µM | > 3.16 µM | – | – | – | – | – | – | – | – | – | –
20 | Nc1ncc(/C=N/O)c(NCC2(CO)CC(CCc3ccccc3)C2)n1 (configuration not stated) | 22.3 µM | 30.4 µM | 42.9 µM | 29.6 µM | 29.1 µM | 28.8 µM | 11.9 µM | 50.2 µM | 70.6 µM | 31.6 µM | – | – | – | – | – | – | – | – | – | –
21 | Cc1c2cccc-2ccc2c1[nH]c1ccccc12 | 6.41 µM | – | 8.28 µM | 3.42 µM | 28.5 µM | 15.7 µM | 3.34 µM | > 26.1 µM | > 27.3 µM | 5.57 µM | – | – | – | – | – | – | – | – | – | –
22 | CC(C)(C)c1ccc(-c2nnc(-c3cc(C#N)cc(-c4nnc(-c5ccc(C(C)(C)C)cc5)o4)c3)o2)cc1 | > 100 µM | > 100 µM | > 100 µM | – | > 100 µM | > 100 µM | > 100 µM | > 100 µM | > 100 µM | > 100 µM | – | – | – | – | – | – | – | – | – | –
23 | CC1(C)[C@@H]2CC[C@@]1(C)[C@H](O)[C@@H]2SCc1ccccc1 | 36.6 µM | 36.6 µM | > 100 µM | 34.6 µM | 0.0578 µM | 40.6 µM | 29.1 µM | 96.6 µM | 33 µM | 36.4 µM | – | – | – | – | – | – | – | – | – | –
24 | COC(=O)C(NC(=O)CSc1nnc(COc2ccc(Cl)cc2)n1-c1ccccc1)C(C)C (configuration not stated) | 88.1 µM | 38.7 µM | – | > 100 µM | > 100 µM | > 100 µM | – | > 100 µM | 82.1 µM | 38.5 µM | – | – | – | – | – | – | – | – | – | –
25 | O=P(O)(O)CN1CCNCCN(CP(=O)(O)O)CCNCC1 | > 100 µM | > 100 µM | > 100 µM | > 100 µM | > 100 µM | > 100 µM | > 42 µM | > 100 µM | > 100 µM | > 100 µM | – | – | – | – | – | – | – | – | – | –
26 | C=C1CC(Cn2cc(Br)c(=O)[nH]c2=O)(c2ccc(-c3ccccc3)cc2)OC1=O (configuration not stated) | 2.61 µM | 3.21 µM | 0.574 µM | 3.92 µM | 2.33 µM | 4.59 µM | 2.55 µM | 0.712 µM | 4.82 µM | 3.68 µM | – | – | – | – | – | – | – | – | – | –
27 | CC(=O)CC1(C)OC(N)=C(C#N)C1(C#N)C#N (configuration not stated) | > 100 µM | > 100 µM | > 100 µM | > 100 µM | > 100 µM | > 100 µM | > 100 µM | > 100 µM | > 100 µM | > 100 µM | – | – | – | – | – | – | – | – | – | –
28 | C=C[C@@](C)(/C=C/c1ccc(O)cc1)CCC=C(C)C | 32.2 µM | 35.5 µM | 32.3 µM | – | 35.6 µM | 26.1 µM | 30.7 µM | 31 µM | 31 µM | – | – | – | – | – | – | – | – | – | – | –
29 | COc1ccc(C=Nc2ccc(-c3nc4ccccc4[nH]3)cc2)cc1OC | > 100 µM | – | > 100 µM | > 100 µM | > 100 µM | > 100 µM | > 100 µM | > 100 µM | > 100 µM | > 100 µM | – | – | – | – | – | – | – | – | – | –
30 | O=CNNC(=O)Nc1ccc(Cl)cc1 | – | > 100 µM | > 100 µM | > 100 µM | 97.6 µM | > 100 µM | > 100 µM | > 100 µM | > 100 µM | > 100 µM | – | – | – | – | – | – | – | – | – | –
31 | COc1cccc(CN(C(=O)/C=C\Sc2ccccc2)C(C)(C)C)c1 | > 100 µM | > 100 µM | – | > 100 µM | > 100 µM | > 100 µM | > 100 µM | > 100 µM | > 100 µM | > 100 µM | – | – | – | – | – | – | – | – | – | –
